The text below walks through data of patent US20190054097A1, “COMPOSITIONS TARGETING SENESCENT CELLS AND THE USES THEREOF” (BioVentures, LLC, priority 2016, published 2019).

Structures are written as SMILES.

In data set [1] the test system is senescent cells. The data set is described as follows: Cisplatin-induced peripheral neuropathy (CIPN) in C57BL/6 mice, Von Frey assay and Hot Plate Analgesia Meter. Type of data set: in vivo. The note with it: 50 mg/kg/day i.p., 5 days per cycle, 2 cycles, mechanical sensitivity and thermal allodynia, FIG. 5-7. How it is done: CIPN was induced in young adult male and female C57BL/6 mice by intraperitoneal (i.p.) injection of Cisplatin (Lake Zurich, Ill., USA) at 2.3 mg/kg/d for 5 days per cycle for 2 cycles with an interval of 5 days between the cycles. The induction of CIPN was measured by analyzing the mechanical sensitivity using the Von Frey assay the day before Cisplatin treatment and on various day after Cisplatin treatment
Mice were treated as described in FIG. 1. The induction of CIPN was measured by analyzing the sensitivity to thermal allodynia using the Hot Plate Analgesia Meter on various day after Cisplatin treatment. N=10 for control group and 5 for Cisplatin-treated groups. ***p<0.001 vs. Control.
To determine the effect of senescent cells on the induction of CIPN, Cisplatin-treated mice were administered with vehicle or ABT263 at 50 mg/kg/day for 5 days per cycle for 2 cycles with an interval of 17 days between the cycles by i.p. injection at the indicated times after Cisplatin treatment. The induction of CIPN was measured by analyzing the mechanical sensitivity using the Von Frey assay (FIG. 5 and FIG. 6) and by analyzing the sensitivity to thermal allodynia using the Hot Plate Analgesia Meter (FIG. 7) the day before Cisplatin treatment and on various day after Cisplatin treatment.

Data set [2] has as its system senescent cells. The data set is described as follows: Cisplatin-induced peripheral neuropathy (CIPN) in p16-3MR transgenic mice, Von Frey assay and Hot Plate Analgesia Meter. The note with it: GCV 25 mg/kg/day or ABT263 50 mg/kg/day i.p., 5 days per cycle, 2 cycles, FIG. 8-11. It counts as in vivo. On the procedure:
CIPN was induced in young adult male and female p16-3MR mice by intraperitoneal (i.p.) injection of cisplatin (Lake Zurich, Ill., USA) at 2.3 mg/kg/d for 5 days per cycle for 2 cycles with an interval of 5 days between the cycles. The induction of CIPN was measured by analyzing the mechanical sensitivity using the Von Frey assay the day before Cisplatin treatment and on various day after Cisplatin treatment. N=5-6 mice per group.
Mice were treated as described in FIG. 8. The induction of CIPN was measured by analyzing the sensitivity to thermal allodynia using the Hot Plate Analgesia Meter on various day after Cisplatin treatment. N=5-6 mice per group.
To determine the effect of senescent cells on the induction of CIPN, cisplatin-treated mice were administered with vehicle, ganciclovir (GCV) at 25 mg/kg/day for 5 days per cycle for 2 cycles with an interval of 17 days between the cycles, or ABT263 at 50 mg/kg/day for 5 days per cycle for 2 cycles with an interval of 17 days between the cycles by i.p. injection at the indicated times after cisplatin treatment. […] The induction of CIPN was measured by analyzing the mechanical sensitivity using the Von Frey assay (FIG. 8 and FIG. 9) and by analyzing the sensitivity to thermal allodynia using the Hot Plate Analgesia Meter (FIG. 10 and FIG. 11) the day before Cisplatin treatment and on various day after Cisplatin treatment.

The test system of data set [3] is senescent osteocytes. Kind of data set: Five-day administration to aged mice: western blot and qPCR of osteocyte-enriched femoral bone shafts. It counts as in vivo, 24-month-old female mice. How it is done: ABT-263 or its derivative Bcl-PROTAC (or vehicles) were administered by daily i.p. injections for 5 days to 24-month-old female mice. […] We have shown that γ-H2AX, p16, GATA4, RANKL and MMP-13 increase, while OPG and Wnt10b decrease with age in bone of female and male mice (Piemontese et al., 2017 JCI Insight).
Osteocyte-enriched femoral cortical bone was prepared by removing the ends, flushing the bone marrow by centrifugation, and removal of surface cells by scraping with a scalpel. Bone fragments were immediately frozen in liquid nitrogen and pulverized. Proteins were extracted with a buffer containing 20 mM Tris-HCL, 150 mM NaCl, 1% Triton X-100, protease inhibitor mixture, and phosphatase inhibitor cocktail (Sigma-Aldrich) on ice for 30 min and then keep on −80° C. for overnight. The protein concentration of the bone extract was determined using the DC Protein Assay Kit (Bio-Rad). The extracted protein ([…] per sample) was subjected to 15% SDS-PAGE gels and transferred electrophoretically onto PVDF membranes. The membranes were blocked in 5% fat-free milk/Tris-buffered saline for 120 min and incubate with each primary antibody followed by secondary antibodies conjugated with horseradish peroxidase. […] Bound antibodies were detected with ECL reagents (Millipore), and imaged and quantified with a VersaDoc™ imaging system (Bio-Rad).
(§1) Total RNA was extracted with Ultraspec (Biotecx Laboratories) and reverse-transcribed using the High-Capacity cDNA Archive Kit (Applied Biosystems) according to the manufacturer's instructions. TaqMan quantitative real-time PCR was performed using the following primers from Applied Biosystems: Rankl (Mm00441908_m1); Mmp-13 (Mm00439491_m1); OPG (Mm00435452_m1); Wnt10b (Mm00442104_m1); IL-1α (Mm99999060_m1); Sdf-1 (Mm00445553_m1); p21 (Mm00432448_m1). Target gene expression was calculated by normalizing to the housekeeping gene ribosomal protein S2 (Mm00475528_m1) using the ΔCt method (Livak and Schmittgen, 2001).

The subject of data set [4] is bone marrow stromal cells. The data set is described as follows: Five-day administration to aged mice: ex vivo bone marrow stromal cell cultures (qPCR, osteoblast and adipocyte differentiation). It counts as in vivo, 24-month-old female mice.
Text: We also isolated bone marrow stromal cells from mice treated with vehicle or the senolytics and cultured them for 5 days.
Conversely, bone marrow cells from the mice treated with senolytics cultured in the presence of adipogenic medium had decreased adipogenic potential (FIG. 14C).
as §1
Total bone marrow cells pooled from 3-5 mice from each group were cultured with 20% FBS, 1% PSG and […] of ascorbic acid in 10-cm culture dishes for 5 days. Half of the medium was replaced every 3 days. Bone marrow-derived osteoprogenitor cells were re-plated into 12-well plates and cultured with […] of ascorbic acid and 10 mM b-glycerophosphate for 21 days. Mineralized matrix was stained with 40 mM Alizarin Red solution.
Bone marrow-derived stromal cells were cultured to 70% confluence, and the media supplemented with rosiglitazone (5 nM/m1) or with 3.3% BSA in PBS as vehicle control. Medium containing ligand was changed every 2 d for 11 d. Cells were fixed in 10% formalin in PBS, rinsed, and stained for 30 min with 0.15% Oil Red 0 (Sigma) in a 55:45 mix of isopropanol and water. Cells were counterstained with 0.5% methyl green (Fisher Scientific, Fairlawn, N.J.) in 0.1 M sodium acetate, pH4. Oil Red 0 staining was quantified after extraction of the dye with 1 ml isopropanol and absorbance determination at 490 nm.
(In qPCR the cycle at which signal appears reflects the starting amount.)

The subject of data set [5] is osteoclast progenitors. Kind of data set: Five-day administration to aged mice: osteoclast differentiation from bone marrow macrophages. Type of data set: in vivo, 24-month-old female mice. The note with it: bone marrow macrophages from treated mice, cultured with RANKL and M-CSF for 5 days, FIG. 15A and 15B. How it is done:
In summary, short-term administration of ABT-263 or Bcl-PROTAC to aged mice decreases senescent osteoprogenitors and osteocytes, as well as the SASP and osteoclastogenesis.
Bone marrow cells were obtained by flushing the tibiae and femurs from the 24 month-old female mice with α-MEM medium (Invitrogen). After the red blood cells were removed with ACK buffer (0.01 mM EDTA, 0.011 M KHCO3, and 0.155 M NH4Cl, pH 7.3), we suspended the cells in α-MEM complete media containing 10% (v/v) fetal bovine serum, 100 U ml-1 penicillin, and 100 μg ml-1 streptomycin and incubated the cells for 24 h in the presence of 10 ng ml-1 M-CSF. We collected the non-adherent cells and cultured with 30 ng ml-1 M-CSF for 3 days to generate bone marrow-derived macrophages. […] We fixed the osteoclast cultures with 10% neutral buffered formalin for 15 min and stained for tartrate-resistant acid phosphatase (TRAP) using the Leukocyte Acid Phosphatase Assay Kit, following the manufacturer's instructions (Sigma-Aldrich). For all assays we plated cells in triplicate.

Data set [6] concerns platelets. The conditions noted are these: administration to subjects; platelets rely on Bcl-xl for survival; cited from earlier work.
[7] abbreviates: femoral extracts, qPCR, FIG. 12B.
Setting [8] is: bone marrow-derived stromal cells from treated mice, ex vivo culture, FIG. 13.

Take `CC1(C)CCC(c2ccc(Cl)cc2)=C(CN2CCN(c3ccc(C(=O)NS(=O)(=O)c4ccc(N[C@H](CCN5CCOCC5)CSc5ccccc5)c(S(=O)(=O)C(F)(F)F)c4)cc3)CC2)C1` [ABT-263, (R)-4-(4-((4′-chloro-4,4-dimethyl-3,4,5,6-tetrahydro-[1,1′-biphenyl]-2-yl-)methyl)piperazin-1-yl)-N-((4-((4-morpholino-1-(phenylthio)butan-2-yl)amin-o)-3-((trifluoromethyl)sulfonyl)phenyl)sulfonyl)benzamide]: the “Reversal of cisplatin-induced peripheral neuropathy” value in data set [1] is “reversed Cisplatin-induced peripheral neuropathy (CIPN)”. In addition, in data set [2], the “Reversal of cisplatin-induced peripheral neuropathy” value is “reversed cisplatin-induced peripheral neuropathy (CIPN)”. Also, in data set [3] (setting [7]), the “mRNA for OPG” value is reported as “increased the mRNA for OPG”; the “mRNA for RANKL and MMP13” value was “decreased the mRNA for RANKL and MMP13”. Also, the “Markers of cell senescence: protein levels of γ-H2AX, p16 and GATA4” value in data set [3] (osteocyte-enriched femoral bone shafts, daily i.p. for 5 days, western blot, FIG. 12A) is on record as “decreased marker of cell senescence”. In addition, in data set [4] (setting [8]), the “Expression of p21” value is recorded as “decreased expression of p21”; the “mRNA levels of RANKL, MMP-13, IL-1a and SDF-1” value was “decreased mRNA levels of RANKL and MMP-13, as well as IL-1a and SDF-1”. Further, the “Osteoblastogenic potential (Alizarin Red staining)” value in data set [4] (stromal cells from treated mice, 21 days in osteogenic medium, FIG. 14A and 14B) is reported as “promotes osteoblastogenesis”. The “Osteoclastogenic potential (TRAP-positive multinucleated cells)” value in data set [5] is “decreased osteoclastogenic potential”. Further, the Thrombocytopenia result in data set [6] is on record as “cause thrombocytopenia”.
